According to patent publication US9938281B2 (Merck Sharp & Dohme Corp., priority 2012, dated 2018):

Tests used:
PI3K-delta = molecular target: T1, PI3K-delta (Homo sapiens, UniProt O00329); assay: HTRF PI3K biochemical assay, delta isoform; conditions: form screened (neutral or TFA salt) given, read-out: PI3Kdelta IC50
T1 construct: purchased Upstate; Millipore 14-604

PI3K-alpha = molecular target: T2, PI3K-alpha (Homo sapiens, UniProt P42336); assay: HTRF PI3K biochemical assay, alpha isoform; conditions: ratio PI3K-alpha IC50 value / PI3K-delta IC50 value
T2 construct: purchased Upstate; Millipore 14-602
T2 sequence (P42336 whole entry, canonical isoform): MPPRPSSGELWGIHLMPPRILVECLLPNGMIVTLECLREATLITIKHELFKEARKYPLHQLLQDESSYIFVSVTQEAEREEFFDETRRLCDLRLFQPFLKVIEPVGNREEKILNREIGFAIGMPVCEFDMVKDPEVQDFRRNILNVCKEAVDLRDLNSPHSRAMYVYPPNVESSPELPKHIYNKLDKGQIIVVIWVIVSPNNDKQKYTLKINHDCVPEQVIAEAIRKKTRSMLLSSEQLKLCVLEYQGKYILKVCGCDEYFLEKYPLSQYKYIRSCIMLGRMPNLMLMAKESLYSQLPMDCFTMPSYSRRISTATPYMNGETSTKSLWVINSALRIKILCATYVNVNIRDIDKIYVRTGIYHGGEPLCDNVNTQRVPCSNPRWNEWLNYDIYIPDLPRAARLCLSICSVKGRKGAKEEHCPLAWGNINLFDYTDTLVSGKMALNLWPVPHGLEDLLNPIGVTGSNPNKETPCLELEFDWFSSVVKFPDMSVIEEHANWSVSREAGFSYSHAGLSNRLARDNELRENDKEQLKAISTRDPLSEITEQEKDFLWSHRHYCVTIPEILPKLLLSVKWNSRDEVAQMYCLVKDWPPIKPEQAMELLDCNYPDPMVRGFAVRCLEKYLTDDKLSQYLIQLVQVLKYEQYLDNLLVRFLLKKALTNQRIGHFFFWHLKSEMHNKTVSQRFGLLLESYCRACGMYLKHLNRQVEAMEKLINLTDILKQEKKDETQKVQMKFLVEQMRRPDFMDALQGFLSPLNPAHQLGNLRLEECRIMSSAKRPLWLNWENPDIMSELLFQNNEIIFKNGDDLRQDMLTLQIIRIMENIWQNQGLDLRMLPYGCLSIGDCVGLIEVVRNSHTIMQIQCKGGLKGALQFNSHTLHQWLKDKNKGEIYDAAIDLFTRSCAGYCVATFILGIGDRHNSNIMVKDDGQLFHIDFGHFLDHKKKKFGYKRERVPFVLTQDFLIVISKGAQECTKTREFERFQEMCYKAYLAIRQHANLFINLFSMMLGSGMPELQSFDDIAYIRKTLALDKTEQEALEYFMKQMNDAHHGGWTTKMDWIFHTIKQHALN
T2 sequence (P27986 whole entry partner, canonical isoform): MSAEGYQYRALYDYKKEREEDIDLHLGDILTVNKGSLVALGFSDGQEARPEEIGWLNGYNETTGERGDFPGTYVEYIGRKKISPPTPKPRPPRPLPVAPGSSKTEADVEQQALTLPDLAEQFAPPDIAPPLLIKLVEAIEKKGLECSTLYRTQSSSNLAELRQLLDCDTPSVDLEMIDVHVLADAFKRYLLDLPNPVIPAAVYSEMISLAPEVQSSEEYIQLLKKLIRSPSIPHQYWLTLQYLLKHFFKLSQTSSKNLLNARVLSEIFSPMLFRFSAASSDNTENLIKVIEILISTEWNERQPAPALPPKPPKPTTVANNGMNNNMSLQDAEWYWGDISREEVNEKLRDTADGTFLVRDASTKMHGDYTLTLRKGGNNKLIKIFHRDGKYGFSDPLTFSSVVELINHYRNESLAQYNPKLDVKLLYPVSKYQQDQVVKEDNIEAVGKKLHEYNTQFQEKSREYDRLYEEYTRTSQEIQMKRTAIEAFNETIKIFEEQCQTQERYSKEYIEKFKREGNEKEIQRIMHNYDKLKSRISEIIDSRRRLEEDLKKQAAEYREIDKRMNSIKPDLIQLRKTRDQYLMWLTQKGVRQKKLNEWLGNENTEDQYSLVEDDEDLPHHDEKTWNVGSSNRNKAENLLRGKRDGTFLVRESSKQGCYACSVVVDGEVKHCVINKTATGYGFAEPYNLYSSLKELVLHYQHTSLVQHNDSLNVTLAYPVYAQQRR

T1 sequence (O00329 whole entry, canonical isoform): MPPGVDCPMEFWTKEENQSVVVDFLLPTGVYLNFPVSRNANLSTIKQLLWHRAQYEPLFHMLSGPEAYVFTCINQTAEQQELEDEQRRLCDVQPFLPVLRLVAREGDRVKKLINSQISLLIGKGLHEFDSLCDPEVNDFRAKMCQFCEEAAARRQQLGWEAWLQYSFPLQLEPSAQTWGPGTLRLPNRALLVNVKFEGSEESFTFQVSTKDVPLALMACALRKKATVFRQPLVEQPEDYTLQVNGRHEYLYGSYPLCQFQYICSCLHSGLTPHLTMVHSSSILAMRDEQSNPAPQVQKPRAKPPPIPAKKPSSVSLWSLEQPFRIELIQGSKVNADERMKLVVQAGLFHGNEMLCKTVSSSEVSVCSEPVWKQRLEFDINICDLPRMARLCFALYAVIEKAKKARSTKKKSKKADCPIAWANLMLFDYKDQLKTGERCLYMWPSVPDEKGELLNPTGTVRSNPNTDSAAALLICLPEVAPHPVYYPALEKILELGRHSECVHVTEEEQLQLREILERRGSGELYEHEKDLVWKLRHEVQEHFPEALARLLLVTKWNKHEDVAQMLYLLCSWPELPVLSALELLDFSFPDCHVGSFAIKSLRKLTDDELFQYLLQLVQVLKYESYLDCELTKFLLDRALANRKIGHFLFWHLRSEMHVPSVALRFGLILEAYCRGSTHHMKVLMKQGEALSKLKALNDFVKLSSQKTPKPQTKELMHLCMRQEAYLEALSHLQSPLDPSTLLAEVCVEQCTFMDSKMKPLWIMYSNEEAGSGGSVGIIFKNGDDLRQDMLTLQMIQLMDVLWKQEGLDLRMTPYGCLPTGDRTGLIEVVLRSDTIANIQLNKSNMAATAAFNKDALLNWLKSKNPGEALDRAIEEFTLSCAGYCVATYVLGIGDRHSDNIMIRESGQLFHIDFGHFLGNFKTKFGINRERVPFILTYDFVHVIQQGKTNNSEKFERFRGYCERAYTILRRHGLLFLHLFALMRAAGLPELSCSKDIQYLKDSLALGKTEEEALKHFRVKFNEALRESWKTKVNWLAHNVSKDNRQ
T1 sequence (P27986 whole entry partner, canonical isoform): as the sequence (P27986 whole entry partner, canonical isoform) above

Row | SMILES | IC50 (PI3K-delta) | Selectivity versus PI3Kalpha (PI3K-alpha)
1 | CCn1c(-c2cnc(C)nc2)nc2c(N[C@H]3CCN(c4ccc(C)cn4)C3)ncnc21 [Compound 4-3, 9-ethyl-N-[(3S)-1-(5-methylpyridin-2-yl)pyrrolidin-3-yl]-8-(2-methylpyrimidin-5-yl)-9H-purin-6-amine] | 3.7 nM | >10
2 | CCn1c(-c2ccc(C(F)(F)F)nc2)nc2c(N[C@H]3CCN(c4ccccn4)C3)ncnc21 [Compound 4-4, 9-ethyl-N-[(3S)-1-pyridin-2-ylpyrrolidin-3-yl]-8-[6-(trifluoromethyl)pyridin-3-yl]-9H-purin-6-amine] | < 1 nM | >10
3 | CCc1ccnc(N2CC[C@H](Nc3ncnc4c3nc(-c3cnc(C)nc3)n4CC)C2)c1 [Compound 4-6, 9-ethyl-N-[(3S)-1-(4-ethylpyridin-2-yl)pyrrolidin-3-yl]-8-(2-methylpyrimidin-5-yl)-9H-purin-6-amine] | 4.7 nM | >10
4 | CCn1c(-c2cnc(C)nc2)nc2c(N[C@H]3CCN(c4cccc(OC)n4)C3)ncnc21 [Compound 4-7, 9-ethyl-N-[(3S)-1-(6-methoxypyridin-2-yl)pyrrolidin-3-yl]-8-(2-methylpyrimidin-5-yl)-9H-purin-6-amine] | 1.4 nM | >10
5 | CCn1c(-c2cnc(C)nc2)nc2c(N[C@H]3CCN(c4cccc(NC)n4)C3)ncnc21 [Compound 4-8, 9-ethyl-N-{(3S)-1-[6-(methylamino)pyridin-2-yl]pyrrolidin-3-yl}-8-(2-methylpyrimidin-5-yl)-9H-purin-6-amine] | 2.3 nM | >10
6 | CCn1c(-c2cnc(C)nc2)nc2c(N[C@H]3CCN(c4ncccc4C)C3)ncnc21 [Compound 4-10, 9-ethyl-N-[(3S)-1-(3-methylpyridin-2-yl)pyrrolidin-3-yl]-8-(2-methylpyrimidin-5-yl)-9H-purin-6-amine] | 13 nM | >10
7 | CCn1c(-c2cnc(C)nc2)nc2c(N[C@H]3CCN(c4ccc(C#N)cn4)C3)ncnc21 [Compound 4-11, 6-[(3S)-3-{[9-ethyl-8-(2-methylpyrimidin-5-yl)-9H-purin-6-yl]amino}pyrrolidin-1-yl]pyridine-3-carbonitrile] | 12 nM | >10
8 | CCn1c(-c2cnc(C)nc2)nc2c(N[C@H]3C[C@H](C(=O)OC)N(c4ccccn4)C3)ncnc21 [Compound 4-12, methyl (4S)-4-{[9-ethyl-8-(2-methylpyrimidin-5-yl)-9H-purin-6-yl]amino}-1-pyridin-2-yl-D-prolinate] | 8.2 nM | >10
9 | CCn1c(-c2cnc(C)nc2)nc2c(N[C@H]3CC[C@@H](C(=O)OC)C3)ncnc21 [Compound 5-3, methyl (1R,3S)-3-{[9-ethyl-8-(2-methylpyrimidin-5-yl)-9H-purin-6-yl]amino}cyclopentanecarboxyl-ate] | 32 nM | >10
10 | CCn1c(-c2cnc(C)nc2)nc2c(N[C@H]3CC[C@@H](C(=O)N(C)C)C3)ncnc21 [Compound 5-4, (1R,3S)-3-{[9-ethyl-8-(2-methylpyrimidin-5-yl)-9H-purin-6-yl]amino}-N,N-dimethylcyclopentanecarbox-amide] | 5.3 nM | >10
11 | CCn1c(-c2cnc(C)nc2)nc2c(N[C@H]3CC[C@@H](C(=O)N(C)C4CC4)C3)ncnc21 [Compound 5-5, (1R,3S)-N-cyclopropyl-3-{[9-ethyl-8-(2-methylpyrimidin-5-yl)-9H-purin-6-yl]amino}-N-methylcyclopentanecarboxamide] | 3.7 nM | >10
12 | CCn1c(-c2cnc(C)nc2)nc2c(N[C@H]3CC[C@@H](C(=O)NC)C3)ncnc21 [Compound 5-7] | 120 nM | >10
13 | CCn1c(C(=O)NCC(F)(F)F)nc2c(N[C@H]3CCN(C(=O)C4CC4)C3)ncnc21 [Compound 6-3, 6-{[(3S)-1-(cyclopropylcarbonyl)pyrrolidin-3-yl]amino}-9-ethyl-N-(2,2,2-trifluoroethyl)-9H-purine-8-carboxamide] | 6.7 nM | >10
14 | CCn1c(C(=O)N2CCOCC2)nc2c(N[C@H]3CCN(C(=O)C4CC4)C3)ncnc21 [Compound 6-4, N-[(3S)-1-(cyclopropylcarbonyl)pyrrolidin-3-yl]-9-ethyl-8-(morpholin-4-ylcarbonyl)-9H-purin-6-amine] | 140 nM | >10
15 | CCn1c(C(=O)NC2COC2)nc2c(N[C@H]3CCN(C(=O)C4CC4)C3)ncnc21 [Compound 6-6, 6-{[(3S)-1-(cyclopropylcarbonyl)pyrrolidin-3-yl]amino}-9-ethyl-N-oxetan-3-yl-9H-purine-8-carboxamide] | 62 nM | >10
16 | CCn1c(C(=O)N[C@H]2CC[C@H](O)CC2)nc2c(N[C@H]3CCN(C(=O)C4CC4)C3)ncnc21 [Compound 6-7, 6-{[(3S)-1-(cyclopropylcarbonyl)pyrrolidin-3-yl]amino}-9-ethyl-N-(trans-4-hydroxycyclohexyl)-9H-purine-8-carboxamide] | 19 nM | >10
17 | CCn1c(C(N)=O)nc2c(N[C@H]3CCN(C(=O)C4CC4)C3)ncnc21 [Compound 6-11, 6-{[(3S)-1-(cyclopropylcarbonyl)pyrrolidin-3-yl]amino}-9-ethyl-9H-purine-8-carboxamide] | 73 nM | >10
18 | CCn1c(C(=O)N[C@@H](C)C2CC2)nc2c(N[C@H]3CCN(C(=O)C4CC4)C3)ncnc21 [Compound 6-12, 6-{[(3S)-1-(cyclopropylcarbonyl)pyrrolidin-3-yl]amino}-N-[(1S)-1-cyclopropylethyl]-9-ethyl-9H-purine-8-carboxamide] | 25 nM | >10
19 | CCn1c(C(=O)N[C@H](C)C2CC2)nc2c(N[C@H]3CCN(C(=O)C4CC4)C3)ncnc21 [Compound 6-13, 6-{[(3S)-1-(cyclopropylcarbonyl)pyrrolidin-3-yl]amino}-N-[(1R)-1-cyclopropylethyl]-9-ethyl-9H-purine-8-carboxamide] | 12 nM | >10

More lines, in order of falling IC50 (PI3K-delta), values ahead:

Row | IC50 (PI3K-delta) | Selectivity versus PI3Kalpha (PI3K-alpha) | SMILES
20 | 800 nM | >10 | CCn1c(C(=O)N(C)C)nc2c(N[C@H]3CCN(C(=O)C4CC4)C3)ncnc21 [Compound 6-5, 6-{[(3S)-1-(cyclopropylcarbonyl)pyrrolidin-3-yl]amino}-9-ethyl-N,N-dimethyl-9H-purine-8-carboxamide]
21 | 85 nM | >10 | CCn1c(C(=O)NCCOC)nc2c(N[C@H]3CCN(C(=O)C4CC4)C3)ncnc21 [Compound 6-2, 6-{[(3S)-1-(cyclopropylcarbonyl)pyrrolidin-3-yl]amino}-9-ethyl-N-(2-methoxyethyl)-9H-purine-8-carboxamide]
22 | 72 nM | >10 | CCn1c(C(=O)N2CCCC2)nc2c(N[C@H]3CCN(C(=O)C4CC4)C3)ncnc21 [Compound 6-8, N-[(3S)-1-(cyclopropylcarbonyl)pyrrolidin-3-yl]-9-ethyl-8-(pyrrolidin-1-ylcarbonyl)-9H-purin-6-amine]
23 | 35 nM | >10 | CCn1c(-c2cnc(C)nc2)nc2c(N[C@H]3CC[C@H](C(=O)N4CCC4)C3)ncnc21 [Compound 5-2, N-[(1S,3S)-3-(azetidin-1-ylcarbonyl)cyclopentyl]-9-ethyl-8-(2-methylpyrimidin-5-yl)-9H-purin-6-amine]
24 | 20 nM | >10 | CCn1c(C(=O)NCC2CC2)nc2c(N[C@H]3CCN(C(=O)C4CC4)C3)ncnc21 [Compound 6-1, 6-{[(3S)-1-(cyclopropylcarbonyl)pyrrolidin-3-yl]amino}-N-(cyclopropylmethyl)-9-ethyl-9H-purine-8-carboxamide]
25 | 16 nM | >10 | CCn1c(C(=O)NCC(F)(F)F)nc2c(N[C@H]3CCN(c4ccccn4)C3)ncnc21 [Compound 6-10, 9-ethyl-6-{[(3S)-1-pyridin-2-ylpyrrolidin-3-yl]amino}-N-(2,2,2-trifluoroethyl)-9H-purine-8-carboxamide]
26 | 14 nM | >10 | CCn1c(-c2cnc(C)nc2)nc2c(N[C@H]3CCN(c4nccc5sccc45)C3)ncnc21 [Compound 4-13, 9-ethyl-8-(2-methylpyrimidin-5-yl)-N-[(3S)-1-thieno[3,2-c]pyridin-4-y 1pyrrolidin-3-yl]-9H-purin-6-amine]
27 | 13 nM | >10 | CCn1c(-c2cnc(C)nc2)nc2c(N[C@H]3CC[C@H](C(=O)N(C)C4CC4)C3)ncnc21 [Compound 5-1, (1S,3S)-N-cyclopropyl-3-{[9-ethyl-8-(2-methylpyrimidin-5-yl)-9H-purin-6-yl]amino}-N-methylcyclopentanecarboxamide]
28 | 11 nM | >10 | CCn1c(-c2cnc(C)nc2)nc2c(N[C@H]3CC[C@@H](C(=O)N4CCC4)C3)ncnc21 [Compound 5-6, N-[(1S,3R)-3-(azetidin-1-ylcarbonyl)cyclopentyl]-9-ethyl-8-(2-methylpyrimidin-5-yl)-9H-purin-6-amine]
29 | 9.6 nM | >10 | CCn1c(-c2cnc(C)nc2)nc2c(N[C@H]3CCCN(c4ccccn4)C3)ncnc21 [Compound 4-5, 9-ethyl-8-(2-methylpyrimidin-5-yl)-N-[(3S)-1-pyridin-2-ylpiperidin-3-yl]-9H-purin-6-amine]
30 | 6.6 nM | >10 | CCn1c(-c2cnc(C)nc2)nc2c(N[C@H]3CCN(c4nccc5ccccc45)C3)ncnc21 [Compound 4-9, 9-ethyl-N-[(3S)-1-isoquinolin-1-ylpyrrolidin-3-yl]-8-(2-methylpyrimidin-5-yl)-9H-purin-6-amine]
31 | 3.3 nM | >10 | CCn1c(C(=O)NCC(F)(F)F)nc2c(N[C@H]3CCN(C(=O)C4CCC4)C3)ncnc21 [Compound 6-9, 6-{[(3S)-1-(cyclobutylcarbonyl)pyrrolidin-3-yl]amino}-9-ethyl-N-(2,2,2-trifluoroethyl)-9H-purine-8-carboxamide]
